The results in this text go back to patent US20250235543A1, “MODIFIED PROTEINS AND PROTEIN DEGRADERS” (Cullgen (Shanghai), Inc., priority 2021, published 2025).

SMILES strings stand for the structures. Read-outs that look alike come from different tables or passages of the source.

The target in assay [1] is T1, CDK4 (Homo sapiens, UniProt P11802).
T1 construct: endogenous in cells; host or cells: Calu-1
Briefly: CDK4 percentage degradation in Calu-1 cells (immunoblotting). The assay is classed as cell-based. As to conditions: for inhibition at 0.2 µM: read-out: CDK4 Degradation (200 nM); for inhibition at 10 µM: read-out: CDK4 Degradation (10 μM). On the procedure: (§1) […] A: protein percentage degradation >=80%; B: protein percentage degradation <80%, and >=50%; C: protein percentage degradation <50%, and >=30%; D: protein percentage degradation <30%.
(§2) Cultured cells were washed with cold PBS once and lysed in cold RIPA buffer supplemented with protease inhibitors and phosphatase inhibitors (Beyotime Biotechnology). The solutions were then incubated at 4° C. for 30 min with gentle agitation to fully lysed cells. Cell lysates were centrifuged at 13,000 rpm for 10 min at 4° C. and pellets were discarded. Total protein concentrations in the lysates were determined following BCA assays (Beyotime Biotechnology). Cell lysates were mixed with Laemmli loading buffer and heated at 99° C. for 5 min. Proteins were resolved on SDS-PAGE and visualized using Western ECL Substrate kits on a ChemiDoc MP Imaging system (Bio-Rad). Protein bands were quantitated using the Image Lab software provided by Bio-Rad.

The test system of assay [2] is cyclin D1. Briefly: Cyclin D1 percentage degradation in Calu-1 cells (immunoblotting). The class given is cell-based. As to conditions: 16 hours. On the procedure:
as §1, §2

T1 sequence (P11802 2-303 limits assumed): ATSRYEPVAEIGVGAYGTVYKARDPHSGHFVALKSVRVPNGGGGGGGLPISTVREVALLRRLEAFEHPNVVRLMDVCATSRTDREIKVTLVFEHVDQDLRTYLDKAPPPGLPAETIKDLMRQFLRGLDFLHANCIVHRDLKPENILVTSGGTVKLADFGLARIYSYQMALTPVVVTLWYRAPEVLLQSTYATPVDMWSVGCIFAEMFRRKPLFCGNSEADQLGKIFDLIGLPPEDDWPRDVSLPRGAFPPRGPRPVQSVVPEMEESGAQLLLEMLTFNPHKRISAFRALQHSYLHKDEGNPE
T1 sequence (P24385 whole entry partner): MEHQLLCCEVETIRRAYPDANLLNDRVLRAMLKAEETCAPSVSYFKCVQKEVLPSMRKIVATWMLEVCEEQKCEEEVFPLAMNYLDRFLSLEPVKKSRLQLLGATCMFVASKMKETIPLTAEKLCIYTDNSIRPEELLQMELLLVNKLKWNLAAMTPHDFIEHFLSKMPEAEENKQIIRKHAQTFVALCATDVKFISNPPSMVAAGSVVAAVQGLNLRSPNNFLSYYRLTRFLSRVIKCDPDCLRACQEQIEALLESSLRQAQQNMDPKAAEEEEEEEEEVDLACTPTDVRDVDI
T1 sequence (Q16531 2-1140 limits assumed, further chain): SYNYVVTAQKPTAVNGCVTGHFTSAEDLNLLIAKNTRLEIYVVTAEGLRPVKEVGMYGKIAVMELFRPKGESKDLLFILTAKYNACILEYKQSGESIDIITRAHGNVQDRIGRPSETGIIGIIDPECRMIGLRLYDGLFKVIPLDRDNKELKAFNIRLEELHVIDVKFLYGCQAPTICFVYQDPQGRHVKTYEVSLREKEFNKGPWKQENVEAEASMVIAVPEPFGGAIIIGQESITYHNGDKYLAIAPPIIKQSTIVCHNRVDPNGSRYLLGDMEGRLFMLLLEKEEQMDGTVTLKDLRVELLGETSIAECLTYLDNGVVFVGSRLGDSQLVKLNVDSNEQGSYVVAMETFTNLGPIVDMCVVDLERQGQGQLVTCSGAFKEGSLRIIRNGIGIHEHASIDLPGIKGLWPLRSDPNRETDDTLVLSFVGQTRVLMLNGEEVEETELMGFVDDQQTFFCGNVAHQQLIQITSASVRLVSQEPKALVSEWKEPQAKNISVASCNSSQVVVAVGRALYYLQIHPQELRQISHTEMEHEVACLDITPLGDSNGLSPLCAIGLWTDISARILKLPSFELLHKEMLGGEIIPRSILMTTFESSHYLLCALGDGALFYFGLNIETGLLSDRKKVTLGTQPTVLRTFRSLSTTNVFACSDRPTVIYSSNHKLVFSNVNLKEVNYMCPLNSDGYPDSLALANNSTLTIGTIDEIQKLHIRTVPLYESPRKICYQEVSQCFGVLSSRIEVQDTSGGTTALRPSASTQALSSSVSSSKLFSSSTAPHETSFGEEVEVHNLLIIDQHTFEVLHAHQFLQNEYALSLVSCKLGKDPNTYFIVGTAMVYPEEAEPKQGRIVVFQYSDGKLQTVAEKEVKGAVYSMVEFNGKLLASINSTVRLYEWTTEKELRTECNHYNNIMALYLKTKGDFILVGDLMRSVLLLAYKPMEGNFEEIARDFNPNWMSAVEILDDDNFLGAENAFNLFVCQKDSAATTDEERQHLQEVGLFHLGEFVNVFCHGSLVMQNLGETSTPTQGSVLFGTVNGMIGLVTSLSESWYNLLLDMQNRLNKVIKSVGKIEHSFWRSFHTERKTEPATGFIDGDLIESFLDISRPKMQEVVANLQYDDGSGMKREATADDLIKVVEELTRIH

For the compound `CC(=O)c1c(C)c2cnc(Nc3ccc(N4CCN(CC(=O)NCCNc5cccc(C(=O)Nc6nc(C)c(C)s6)c5C)CC4)cn3)nc2n(C2CCCC2)c1=O` [CPD-092, 3-((2-(2-(4-(6-((6-Acetyl-8-cyclopentyl-5-methyl-7-oxo-7,8-dihydropyrido[2,3-d]pyrimidin-2-yl)amino)pyridin-3-yl)piperazin-1-yl)acetamido)ethyl)amino)-N-(4,5-dimethylthiazol-2-yl)-2-methylbenzamide], the inhibition at 0.2 µM in assay [1] (Calu-1 cells, 200 nM, 16 hours) is less than 30%. Further, the “CyclinD1 Degradation (200 nM)” value in assay [2] was “D (protein percentage degradation <30%)”.
For `COc1ccc(NC(=O)c2ccccc2NC(=O)CCOCCOCCNC(=O)CN2CCN(c3ccc(Nc4ncc5c(C)c(C(C)=O)c(=O)n(C6CCCC6)c5n4)nc3)CC2)nc1` [CPD-342, 2-(3-(2-(2-(2-(4-(6-((6-Acetyl-8-cyclopentyl-5-methyl-7-oxo-7,8-dihydropyrido[2,3-d]pyrimidin-2-yl)amino)pyridin-3-yl)piperazin-1-yl)acetamido)ethoxy)ethoxy)propanamido)-N-(5-methoxypyridin-2-yl)benzamide], the inhibition at 0.2 µM in assay [1] (Calu-1 cells, 200 nM, 16 hours) lay in the range of 50 to 80%. For the same compound, the “CyclinD1 Degradation (200 nM)” value in assay [2] is given as “A (protein percentage degradation >=80%)”.
`Cc1nc(NC(=O)c2ccccc2NC(=O)CCOCCOCCNC(=O)CN2CCN(Cc3ccc(Nc4ncc(F)c(-c5cc(F)c6nc(C)n(C(C)C)c6c5)n4)nc3)CC2)sc1C` [CPD-281, N-(4,5-Dimethylthiazol-2-yl)-2-(3-(2-(2-(2-(4-((6-((5-fluoro-4-(4-fluoro-1-isopropyl-2-methyl-1H-benzo[d]imidazol-6-yl)pyrimidin-2-yl)amino)pyridin-3-yl)methyl)piperazin-1-yl)acetamido)ethoxy)ethoxy)propanamido)benzamide]: the inhibition at 10 µM in assay [1] (Calu-1 cells, 16 hours) is less than 30%. Also, the “CyclinD1 Degradation (10 μM)” value in assay [2] is listed as “D (protein percentage degradation < 30%)”.
As to `CC(=O)c1c(C)c2cnc(Nc3ccc(N4CCN(CC(=O)NCCOCCOCCOCCOCCOCCOCCNc5ccc(C)c(C(=O)Nc6nc(C)c(C)s6)c5)CC4)cn3)nc2n(C2CCCC2)c1=O` [CPD-132, 5-((1-(4-(6-((6-Acetyl-8-cyclopentyl-5-methyl-7-oxo-7,8-dihydropyrido[2,3-d]pyrimidin-2-yl)amino)pyridin-3-yl)piperazin-1-yl)-2-oxo-6,9,12,15,18,21-hexaoxa-3-azatricosan-23-yl)amino)-N-(4,5-dimethylthiazol-2-yl)-2-methylbenzamide], the inhibition at 0.2 µM in assay [1] (Calu-1 cells, 200 nM, 16 hours) was more than 80%. In assay [2], the “CyclinD1 Degradation (200 nM)” value is given as “A (protein percentage degradation >=80%)”.
Taken in the same sequence, the figures for `CC(=O)c1c(C)c2cnc(Nc3ccc(N4CCN(CC(=O)NCCOCCOCCOCCOCCNc5ccc(C)c(C(=O)Nc6nc(C)c(C)s6)c5)CC4)cn3)nc2n(C2CCCC2)c1=O` [CPD-118, 5-((1-(4-(6-((6-Acetyl-8-cyclopentyl-5-methyl-7-oxo-7,8-dihydropyrido[2,3-d]pyrimidin-2-yl)amino)pyridin-3-yl)piperazin-1-yl)-2-oxo-6,9,12,15-tetraoxa-3-azaheptadecan-17-yl)amino)-N-(4,5-dimethylthiazol-2-yl)-2-methylbenzamide] were less than 30% and “D (protein percentage degradation <30%)”.
For the compound `CC(=O)c1c(C)c2cnc(Nc3ccc(N4CCN(CC(=O)NCCOCCOCCC(=O)Nc5ccccc5C(=O)Nc5ccc(C(F)(F)F)cn5)CC4)cn3)nc2n(C2CCCC2)c1=O` [CPD-084, 2-(3-(2-(2-(2-(4-(6-((6-Acetyl-8-cyclopentyl-5-methyl-7-oxo-7,8-dihydropyrido[2,3-d]pyrimidin-2-yl)amino)pyridin-3-yl)piperazin-1-yl)acetamido)ethoxy)ethoxy)propanamido)-N-(5-(trifluoromethyl)pyridin-2-yl)benzamide], the inhibition at 0.2 µM in assay [1] (Calu-1 cells, 200 nM, 16 hours) lay in the range of 50 to 80%. Moreover, the “CyclinD1 Degradation (200 nM)” value in assay [2] is given as “A (protein percentage degradation >=80%)”.
As to `CC(=O)c1c(C)c2cnc(Nc3ccc(N4CCN(C(=O)CCCNc5ccc(C)c(C(=O)Nc6nc(C)c(C)s6)c5)CC4)cn3)nc2n(C2CCCC2)c1=O` [CPD-165, 5-((4-(4-(6-((6-Acetyl-8-cyclopentyl-5-methyl-7-oxo-7,8-dihydropyrido[2,3-d]pyrimidin-2-yl)amino)pyridin-3-yl)piperazin-1-yl)-4-oxobutyl)amino)-N-(4,5-dimethylthiazol-2-yl)-2-methylbenzamide], the inhibition at 0.2 µM in assay [1] (Calu-1, 16 h) was less than 30%. The “CyclinD1 Degradation (200 nM)” value in assay [2] is reported as “D (protein percentage degradation <30%)”.
On to `Cc1nc(NC(=O)c2ccccc2NC(=O)CCNC(=O)CN2CCN(c3ccc(Nc4ncc5cc(C(=O)N(C)C)n(C6CCCC6)c5n4)nc3)CC2)sc1C` [CPD-287, 7-Cyclopentyl-2-((5-(4-(2-((3-((2-((4,5-dimethylthiazol-2-yl)carbamoyl)phenyl)amino)-3-oxopropyl)amino)-2-oxoethyl)piperazin-1-yl)pyridin-2-yl)amino)-N,N-dimethyl-7H-pyrrolo[2,3-d]pyrimidine-6-carboxamide], for which the inhibition at 10 µM in assay [1] (Calu-1 cells, 16 hours) lay in the range of 30 to 50%. In addition, in assay [2], the “CyclinD1 Degradation (10 μM)” value is given as “A (protein percentage degradation >= 80%)”.
Take `CC(=O)c1c(C)c2cnc(Nc3ccc(N4CCN(CC(=O)NCCOCCOCCC(=O)Nc5ccccc5C(=O)Nc5nc(C)ns5)CC4)cn3)nc2n(C2CCCC2)c1=O` [CPD-058, 2-(3-(2-(2-(2-(4-(6-((6-Acetyl-8-cyclopentyl-5-methyl-7-oxo-7,8-dihydropyrido[2,3-d]pyrimidin-2-yl)amino)pyridin-3-yl)piperazin-1-yl)acetamido)ethoxy)ethoxy)propanamido)-N-(3-methyl-1,2,4-thiadiazol-5-yl)benzamide]: the inhibition at 0.2 µM in assay [1] (Calu-1 cells, 200 nM, 16 hours) was less than 30%. Besides, the “CyclinD1 Degradation (200 nM)” value in assay [2] is “D (protein percentage degradation <30%)”.
Take `CC(=O)c1c(C)c2cnc(Nc3ccc(N4CCN(CC(=O)NCCCCCCCNc5nc(C)ccc5C(=O)Nc5nc(C)c(C)s5)CC4)cn3)nc2n(C2CCCC2)c1=O` [CPD-338, 2-((7-(2-(4-(6-((6-Acetyl-8-cyclopentyl-5-methyl-7-oxo-7,8-dihydropyrido[2,3-d]pyrimidin-2-yl)amino)pyridin-3-yl)piperazin-1-yl)acetamido)heptyl)amino)-N-(4,5-dimethylthiazol-2-yl)-6-methylnicotinamide]: the inhibition at 0.2 µM in assay [1] (Calu-1 cells, 200 nM, 16 hours) was 50 to 80%. The “CyclinD1 Degradation (200 nM)” value in assay [2] is given as “A (protein percentage degradation >=80%)”.
With `CC(=O)c1c(C)c2cnc(Nc3ccc(N4CCN(CC(=O)NCCCCCCCCCNc5ccccc5C(=O)Nc5nc(C)c(C)s5)CC4)cn3)nc2n(C2CCCC2)c1=O` [CPD-268, 2-((9-(2-(4-(6-((6-Acetyl-8-cyclopentyl-5-methyl-7-oxo-7,8-dihydropyrido[2,3-d]pyrimidin-2-yl)amino)pyridin-3-yl)piperazin-1-yl)acetamido)nonyl)amino)-N-(4,5-dimethylthiazol-2-yl)benzamide], in assay [1] (Calu-1 cells, 200 nM, 16 hours), the inhibition at 0.2 µM fell in the range of 50 to 80%. Also, the “CyclinD1 Degradation (200 nM)” value in assay [2] is listed as “A (protein percentage degradation >=80%)”.
With `CC(=O)c1c(C)c2cnc(Nc3ccc(N4CCN(C(=O)CCOCCOCCOCCOCCOCCNc5cccc(C(=O)Nc6nc(C)c(C)s6)c5C)CC4)cn3)nc2n(C2CCCC2)c1=O` [CPD-126, 3-((18-(4-(6-((6-Acetyl-8-cyclopentyl-5-methyl-7-oxo-7,8-dihydropyrido[2,3-d]pyrimidin-2-yl)amino)pyridin-3-yl)piperazin-1-yl)-18-oxo-3,6,9,12,15-pentaoxaoctadecyl)amino)-N-(4,5-dimethylthiazol-2-yl)-2-methylbenzamide], the inhibition at 0.2 µM in assay [1] (Calu-1, 16 h) is 50 to 80%. In addition, the “CyclinD1 Degradation (200 nM)” value in assay [2] is “B (protein percentage degradation <80%, and >=50%)”.
